Assays:
HIV-1IIIB = experiment: HIV-1 antiviral assay (CPE reduction) in CEM-SS cells; format: cell-based; settings: peptide 10 micrograms per ml; 6 days post-infection; MTS
HCMV strain AD169 = experiment: HCMV plaque reduction assay in MRC-5 cells; format: cell-based; settings: HCMV in MRC-5 cells; peptide 10 micrograms per ml; 7-10 days
Excerpt: Ganciclovir was used as positive control.

Pseudomonas aeruginosa = format: cell-based; settings: 10 micrograms per ml
Streptococcus pneumoniae = format: cell-based; settings: 10 micrograms per ml
Human A549 cells [1] = experiment: Propidium iodide cell cycle assay; format: cell-based; settings: 10 micrograms per ml, 24 hours, FACS
Excerpt: The cell cycle consists of four distinct phases: […]

RAW 264.7 cells = experiment: Phagocytosis assay (Fluorescein-labeled Escherichia coli); format: cell-based, mouse; settings: 10 micrograms per ml, flow cytometry
Human A549 cells [2] = experiment: Apoptosis induction assay (Annexin-5); format: cell-based; settings: 10 micrograms per ml, 24 hours
Excerpt: Human A549 cells (carcinomic human alveolar basal epithelial cells) were utilized in the experiments employing the Annexin-5 apoptosis assay.

Human A549 cells [3] = experiment: Apoptosis prevention assay (C2 ceramide, Annexin-5); format: cell-based; settings: 30 min pretreatment with 10 micrograms per ml
[4] = system: spleen cells of Ovalbumin-immunized Balb/c mice; experiment: Th1/Th2 cytokine profiling assay; format: cell-based, mouse; settings: 10 micrograms per ml; Ovalbumin restimulation; 72 hours
[5] = system: macrophages from human PBMC; experiment: TNF alpha production assay (LPS-stimulated macrophages, ELISA); format: cell-based; settings: 10 micrograms per ml, lipopolysaccharide 200 ng/ml, overnight
Excerpt: Not stimulated macrophages served as negative background control.

[6] = system: Primary Human endothelial cells (HUVEC); experiment: Endothelial cell migration assay; format: cell-based; settings: 10 micrograms per ml, 22 hours
HUVEC = experiment: Endothelial tube formation assay; format: cell-based, human; settings: 10 micrograms per ml, 20 hours
Excerpt: Positive control was vehicle only.

MRSA = settings: 10 micrograms per ml
in vitro [7] = settings: human, CEM-SS cells
in vitro [8] = settings: human
in vitro [9] = settings: human, MRC-5 cells (human embryonal lung fibroblasts)
Description: The following day, peptide were added and tested in duplicates.

[10] = system: Human Peripheral Blood Mononuclear Cells (PBMC); experiment: T cell proliferation assay (PHA, 3H-thymidine); settings: 10 micrograms per ml
[11] = system: Human Peripheral Blood Mononuclear Cells (PBMC); experiment: B cell proliferation assay (SAC plus IL-2, 3H-thymidine); settings: 10 micrograms per ml
[12] = system: hepatitis B virus (HBV) ayw strain; experiment: HBV experimental assay system (secreted HBV DNA, TaqMan PCR); settings: HepG2-2.2.15; peptide 10 micrograms per ml; six days; HBV DNA in supernatant

CCNC(=O)[C@@H]1CCCN1C(=O)[C@H](CCCNC(=N)N)NC(=O)[C@@H](CC(C)C)NC(=O)[C@@H](Cc1cn(Cc2ccccc2)cn1)NC(=O)[C@H](Cc1ccc(O)cc1)NC(=O)[C@H](CO)NC(=O)[C@H](Cc1c[nH]c2ccccc12)NC(=O)[C@H](Cc1c[nH]cn1)NC(=O)[C@@H]1CCC(=O)N1 [D-Leu^7-Histrelin, Pyr-His-Trp-Ser-Tyr-D-His(Bzl)-D-Leu-Arg-Pro-NHEt]
% CPE reduction in HIV-1 infected CEM-SS cells (HIV-1IIIB): 0.0% | % plaque reduction (HCMV strain AD169): 2.5% | % inhibition (Pseudomonas aeruginosa): 0.0% | % inhibition (Streptococcus pneumoniae): 100.0% | Cell cycle analysis G0/G1 (Human A549 cells [1]): 58.9 | Cell cycle analysis G2/M (Human A549 cells [1]): 9.7 | Cell cycle analysis S (Human A549 cells [1]): 31.4 | % of control phagocytosis (RAW 264.7 cells): 102.9% | % of induction (Human A549 cells [2]): 4.3% | % prevention of ceramide induced apoptosis (Human A549 cells [3]): 0.0% | IFNγ spleen cells; TH1 response (% of control) [4]: 69.2 % of control | IL-2 spleen cells (% of control) [4]: 155.8 % of control | IL-4 spleen cells; TH2 response (% of control) [4]: 235.7 % of control | IL-5 spleen cells; TH2 response (% of control) [4]: 93.0 % of control | TNF-a spleen cells; TH1 response (% of control) [4]: 116.4 % of control | % of LPS induction [5]: 111.5% | % inhibition of migration [6]: 8% | % inhibition of tube formation (HUVEC): 4% | % inhibition (MRSA): 0.0% | viability at 10 micrograms per ml (in vitro [7]): 100% | viability at 144 h, 10 micrograms per ml (in vitro [8]): 91.4% | viability at 144 h (in vitro [9]): 100% | % of PHA induced control [10]: 96.2% | % of SAC/IL2 induced control [11]: 92.6% | % inhibition of HBV replication in HEP G2 cells [12]: 61.6%

Reference: patent US20100204148A1, “(D-LEU7 ) -HISTRELIN AS A THERAPEUTIC AGENT” (priority 2007, published 2010)
